In a melting point compilation (Tetko et al.; mined from patent text by program, amines drawn as free bases though some values may be those of a salt):

| SMILES | melting point [°C] |
| --- | --- |
| CCNC(=O)CCC1CCN(Cc2cnc3cc(NC(=O)c4ccc(-c5ccc(F)cc5)cc4)c(C)cc3c2)CC1 | 227 to 230 |
| NC(=O)CN1C(=O)[C@@H](N)[C@H](c2ccccc2)Sc2ccccc21 (relative stereo) | 196 to 200 |
| Nc1nc(N)nc(-c2cccc(S(N)(=O)=O)c2)n1 | > 290 |
| OCc1c(CO)c(-c2ccncc2)n2c1CCC2 | 173 to 175 |
| Cc1nc(-c2ccc(C(F)(F)F)cc2)sc1CN(C)c1ccc(OCC(=O)O)c(C(F)(F)F)c1 | 180 to 181 |
| O=S(=O)(c1ccccc1)c1ccc2cnc(Nc3ccc(N4CCOCC4)cc3)nn12 | 110 to 115 |
| CN(CCc1ccccc1)CCc1ccc(Nc2ncc3c(n2)-c2ccccc2C(c2cccc(Br)c2)C3)cc1 (stereo not drawn) | 80 to 82 |
| Cn1c(Cl)cnc1C(c1cc(F)ccc1F)S(=O)(=O)c1ccc(Cl)cc1 (stereo not drawn) | 179 to 180 |
| O=C(NCCc1c[nH]c2ccc(C(=O)Nc3ccccc3)cc12)OCc1ccccc1 | 136 to 138 |
| CCc1cc(C(C)=O)c(OC)cc1OCc1cccc(C#N)c1 | 124 to 126 |
| CCCCCCCCCCCCCCOCC(C=CC(=O)N(C)C)(C=CC(=O)N(C)C)COCCCCCCCCCCCCCC | 59 to 61 |
| Oc1ncnc2[nH]c(-c3ccncc3)cc12 | > 260 |
| O=C1COCC(=O)NCCOCCOCCN1 | 147 to 148 |
| CC(=O)c1cc(N(C)C)ccc1NC(=O)c1ccccc1OCc1ccccc1 | 132 to 134 |
| COc1ccc(C(C#Cc2ccccc2)CC(=O)Nc2nccs2)cc1OC1CCCC1 (racemic) | 142 to 144 |
| CCNc1nc(-c2ccccc2)ncc1[N+](=O)[O-] | 136 to 137 |
| CC1(C)CCc2ccc(C(=O)O)cc2CC1 | 166 to 171 |
| CCOC(=O)CCCCNc1ncc([N+](=O)[O-])cc1[N+](=O)[O-] | 70 to 72 |
| O=C(Cc1ccc(Oc2ccc(C(F)(F)F)cn2)cc1)Nc1ccncc1 | 167 to 170 |
| CCOC(=O)C1=C(N)NC(N)=C(C(=O)OCC)C1c1cccc([N+](=O)[O-])c1 | 175 to 176 |
| O=C(O)c1nn(-c2ccc(F)cc2F)c2c1[C@H]1CC[C@@H]2C1 | 110 to 112 |
| COc1cc(C(=O)N2CCCC(CCN3CCC(C(=O)c4nc5ccccc5n4Cc4ccc(F)cc4)CC3)(c3ccc(Cl)c(Cl)c3)C2)cc(OC)c1OC (stereo not drawn) | 93 to 95 |
| CC(=O)c1nc2cccc(Oc3ccccc3)c2cc1OCc1ccccc1 | 116 to 118 |
| CCOC(=O)C1=C(COCCNc2nccs2)NC(C)=C(C(=O)OC)C1c1ccccc1Cl (stereo not drawn) | 134 |
| CC(=O)N(c1ccc(F)c(Cl)c1)c1ncnc2cc(OCCCN3CCOCC3)c([N+](=O)[O-])cc12 | 154 |

| SMILES | melting point [°C] |
| --- | --- |
| O=C1c2ccccc2C(=O)N1CCCCI | 85 to 87 |
| Cc1cccc(C)c1CNc1cc(C(=O)N(C)CCO)cc2c1nc(C)n2C | 177 to 178 |
| CCCCCCCNc1nc(C)c(O)c(=O)[nH]1 | 233 to 235 |
| Cc1nc(C)c(Cl)c(NCc2nccc(SCCCSCc3ccncc3)c2C)n1 | 124 to 125 |
| CN(c1cc(OCCCS(C)(=O)=O)cc2cc(C3=NCC(CN4CCN(S(C)(=O)=O)CC4)S3)[nH]c12)S(=O)(=O)c1ccccn1 (stereo not drawn) | 151 to 153 |
| N#Cc1nc2cc(O)ccc2s1 | 194 |
| Cc1ccc2oc(=O)c(NC(=O)Nc3ccc(F)cc3F)c(-c3ccccc3Cl)c2c1 | 214 to 215 |
| COc1ccc(-c2c(Cl)c(CN3C(=O)CCC3=O)nc3sc4c(c23)CC(C)(C)C(=O)C4)cc1 | 222 to 224 |
| CCN1CC(=O)N(c2ccccc2SC)C1=S | 128 to 131 |
| COC1(c2csc(S(=O)(=O)c3ccc(/C(C)=N/O)cc3)c2)CCOCC1 | 141 to 142 |
| CC(=O)NC[C@H]1CN(c2ccc(N3CCC(F)(CO)CC3)c(F)c2)C(=O)O1 | 154 to 156 |
| CC1(c2onc(-c3ccc(O)cc3)c2-c2ccccc2)CC1 | 212 to 214 |
| Cc1cc2c(-c3ccccc3Cl)c(NC(=O)Nc3ccccc3)c(=O)n(C)c2cc1C | 218 to 219 |
| CS(=O)(=O)c1ccc(-c2ccc(F)n2-c2ccc(F)cc2)cc1 | 140 to 141 |
| CC1(C)N=C(c2ccccc2F)c2cc(I)ccc2NC1=O | 212 |
| CCN1CNC(=O)NC1=O | 220 to 224 |
| CCC(=O)N(O)C(C)c1ccco1 (stereo not drawn) | 74 to 76 |
| CC(C)(C)NC(=O)c1ncc[nH]1 | 134 |
| CNC(=O)N1c2ccccc2CC1C (stereo not drawn) | 158 to 160 |
| COc1cc(COc2ncccc2C#N)ccc1OCc1nc(-c2ccco2)oc1C | 137 to 138 |
| CCCC(c1ccccc1)c1c(O)c2c(oc1=O)CCCCCC2 (stereo not drawn) | 173 to 175 |
| O=S(=O)(Cc1ccccc1)c1ncc(Cl)cn1 | 122 to 124 |
| O=C1C(=CO)CSc2ccc(Cl)cc21 | 103 to 104 |
| Cc1nc2ccccc2n1C1CCNCC1 | 130 to 132 |
| O=c1c(CCCc2nc3ccccc3s2)cc2cccnc2n1-c1cccc([N+](=O)[O-])c1 | 185 to 186 |

| SMILES | melting point [°C] |
| --- | --- |
| CCOC(=O)C1=Cc2cc(Cl)cc(C#CCCCCl)c2OC1C(F)(F)F (stereo not drawn) | 84.8 to 85.9 |
| COC(=O)c1cnc(S)n1C1CCSc2ccccc21 (stereo not drawn) | 163 |
| CCCOc1ccccc1-c1nc2nc(NN)ncc2c(=O)[nH]1 | 219 to 220 |
| COc1c(N)cc(C2(C)CC2)cc1NS(C)(=O)=O | 144 to 146 |
| CCC1(CCCCN2CCN(c3cccc4c3OCCO4)CC2)C(=O)Nc2cc(F)ccc21 (stereo not drawn) | 146 to 147 |
| OCC1OC(n2c(Cl)nc3c(Br)c(Br)ccc32)C(O)C1O (stereo not drawn) | 167 to 169 |
| COc1ccc(C[C@@H](CO)NC(=O)c2ccnc(-n3nc(-c4cccnc4)c4ccccc4c3=O)c2)cc1OC | 135 to 137 |
| CN(CCC(=O)O)C(=O)N(c1ccc(Cl)cc1)C(C)(C)C | 90 to 95 |
| Cc1cc(C(=O)O)ccc1N1CCN(C(=O)OC(C)(C)C)CC1 | 175 to 179 |
| CCOCc1nc2c(N)nc3ccccc3c2n1CC(=O)CC | 187 to 188 |
| CC(=O)Oc1c(C)cc(NC(=O)Nc2c(-c3ccccc3C)c3cc(Cl)c(C)cc3oc2=O)cc1C | 240 to 242 |
| CN(C)c1ccc(-c2cccc(-c3ccnc4c(C(=O)c5cccs5)cnn34)c2)cc1 | 200 to 202 |
| COc1cc(OC)nc(NC(=O)NS(=O)(=O)c2c(Cl)cccc2CN2CCOC2=O)n1 | 135 to 136 |
| CSc1ccc2c(c1)C(=O)Cc1cc(C)ccc1O2 | 102 to 103 |
| CCOC(=O)C1=C(C)NC(C#N)=C(C(=O)OCC)C1c1ccccc1[N+](=O)[O-] (stereo not drawn) | 126 to 128 |
| Cc1sc2c(c1C(=O)c1ccc(S(C)=O)cc1)CCC2C(=O)O (stereo not drawn) | 209 to 213 |
| CN(C)C=C(C(=O)c1ccc(Cl)cc1Cl)n1cncn1 | 173 |
| O=C(Cc1c(-c2ccccc2)c2cc3c(cc2oc1=O)CCC3)Nc1c(Cl)cncc1Cl | 257 to 259 |
| CC(C)C(c1cnccc1C(F)(F)F)N(C)C(=O)Cc1ccccc1 (stereo not drawn) | 71.2 |
| O=[N+]([O-])c1cccnc1N=C=S | 115 to 118 |
| COc1cc(OC)c(F)c(N2Cc3cnc(SC)nc3N(C3CCCC3)C2=O)c1F | 167 to 169 |
| CC(O)(CC(=O)O)c1ccc(-c2ccc(Cl)c(Cl)c2)cc1 (stereo not drawn) | 124 to 126 |
| CCOCn1cc(F)c(=O)n(C(=O)c2cccc(C(=O)Oc3nc(OC(=O)c4ccc(Cl)cc4)ccc3C#N)c2)c1=O | 156 to 158 |
| Cc1sc(-c2ccccc2)nc1CCOc1ccc(N)cn1 | 89 to 91 |
| COCCn1c(C)c(C2(c3ccc(N(C)C)cc3C)OC(=O)c3ccccc32)c2ccccc21 (stereo not drawn) | 205 to 207 |

| SMILES | melting point [°C] |
| --- | --- |
| CCCCCCNC(=O)Oc1cccc(NC(=O)CC(C)(OC)OC)c1 | 110 |
| CCOP(=O)(/C=C/c1cn(-c2ccccc2)nc1OCc1ccc(OCc2nc(-c3ccc(OC)c(C(=O)O)c3)oc2C)c(OC)c1)OCC | 171 to 172 |
| Nc1cccc(C2NC(=O)Cc3ccccc32)c1 (stereo not drawn) | 179 to 180 |
| CC(C)NCC(O)COc1ccc(-c2cc3ncccc3c(=O)n2C)cc1 (stereo not drawn) | 135 to 139 |
| Cc1ccc(S(=O)(=O)N[C@H](COS(=O)(=O)c2ccc(C)cc2)CC(C)C)cc1 | 99 to 101 |
| COc1cc([N+](=O)[O-])c2nccc(C)c2c1Oc1ccc(F)cc1 | 184 to 186 |
| COCC(COc1noc2ccc(Cl)cc12)NC=O (stereo not drawn) | 90 to 92 |
| O=C(NC[C@H]1CN(c2ccc3c(c2)CCCc2cnn(C(=O)c4ccccc4)c2-3)C(=O)O1)c1ccccc1 | 75 to 95 |
| COc1ccc(-c2cc(=O)c3ccc(OCC(O)CN4CCN(c5ccccc5)CC4)cc3o2)cc1OC (stereo not drawn) | 191 to 193 |
| COc1ccc(-c2cc3cc(F)c(F)cc3[nH]2)cc1NCc1ccc(C#N)cc1 | 158 to 159 |
| O=C(c1ccc(F)cc1)C1CCN(C(=O)Cc2ccc(OCc3ccccc3)cc2OCc2ccccc2)CC1 | 158 to 159 |
| CCOC(=O)CNC(=O)c1cccs1 | 82 to 83 |
| CN(C)c1ccc(C(NC(c2ccccc2)c2ccccc2)P(O)O)cc1 (stereo not drawn) | 205 |
| COc1ccc(-n2c(C)nnc2S)cc1 | 214 |
| Fc1ccc2[nH]c3c(c2c1)CCNC3c1ccc2c(c1)OCO2 (stereo not drawn) | 172 |
| Brc1ccc(-c2ccc(C=CC3COC4(CCCCC4)OO3)cc2)cc1 (stereo not drawn) | 118 to 120 |
| C[Si](C)(C)CCCOc1ccc(C(=O)O)c(O)c1 | 187 |
| Clc1ccccc1-c1ccc(-c2ccc(C3=CC=CNC3)cc2)n1CNc1ccccn1 | 163 to 166 |
| CCSc1c(C=NO)c(=O)n(C)c(=O)n1C | 161 to 163 |
| CCOC(=O)CCC1OC(n2cc(CC)c(=O)[nH]c2=O)CC1OC(C)=O (stereo not drawn) | 137 to 138 |
| CC1(C)Oc2ccc(CN)cc2[C@@H](N2CCCC2=O)[C@@H]1O (relative stereo) | 191 to 193 |
| COc1cc2nc(N3CCN(C(=O)C=Cc4ccc(C(C)C)cc4)CC3)nc(N)c2cc1OC | 237 to 238 |
| O=C(c1ccc(C2CCCCC2)cc1)c1cccnc1 | 52 to 54 |
